From patent US9936700B2, “Substituted quinoxaline derivatives as pest control agent” (BAYER CROPSCIENCE AKTIENGESELLSCHAFT, priority 2013, dated 2018)
Read-outs that look alike come from different tables or passages of the source.

Legend:
Nephotettix cincticeps = Nephotettix cincticeps test (NEPHCI); assay type: in vivo; settings: 100 ppm, rice plants, after 14 days
Procedure: Nephotettix cincticeps test (NEPHCI)
In the event that addition of ammonium salts or/and penetrants (rapeseed oil methyl ester) is required, these are each pipetted in a concentration of 1000 ppm after the finished formulation solution has been diluted.
After 14 days, the kill in % is determined. 100% means that all leafhoppers have been killed; 0% means that none of the leafhoppers have been killed.

[1] = log P by reversed-phase HPLC (EEC Directive 79/831 Annex V.A8); assay type: physicochemical; settings: for chromatographic logP: reversed-phase C18 HPLC column
Text: NMR data and log P values: log P (HCOOH)=log P[a] log P (neutral)=log P[b]
^[a] […] Called log P (HCOOH) in the table.
^[b] […] Called log P (neutral) in the table.

Nilaparvata lugens [2] = assay: Nilaparvata lugens spray test (solvent dimethylformamide, 7 days); assay type: in vivo; settings: 20 ppm, rice plants, after 7 days
Procedure: (§1) Nilaparvata lugens—spray test
If the addition of ammonium salts or/and penetrants is required, these are each added in a concentration of 1000 ppm to the formulation solution.
After 7 days, the efficacy in % is determined.

Aphis gossypii = Aphis gossypii spray test; assay type: in vivo; settings: 100 ppm, cotton plants, after 6 days
Procedure: Aphis gossypii—spray test
(§2) • Solvent: 7 parts by weight of dimethylformamide • Emulsifier: alkylaryl polyglycol ether
(§3) To produce further test concentrations, the preparation is diluted with emulsifier-containing water. If the addition of ammonium salts or/and penetrants is required, these are each added in a concentration of 1000 ppm to the formulation solution.
After 6 days, the kill in % is determined. 100% means that all the aphids have been killed; 0% means that no aphids have been killed.

Bemisia tabaci = Bemisia tabaci spray test; assay type: in vivo; settings: cotton plants, after 8 days
Procedure: Bemisia Tabaci—Spray Test
as §2, §3
After 8 days, the efficacy in % is determined. 100% means that all the whiteflies have been killed; 0% means that none of the whiteflies have been killed.

Myzus persicae = Myzus persicae spray test (MYZUPE); assay type: in vivo; settings: Chinese cabbage leaf discs, after 6 days
Procedure: Myzus persicae—spray test (MYZUPE)
• Solvent: 78 parts by weight of acetone • 1.5 parts by weight of dimethylformamide • Emulsifier: 0.5 part by weight of alkylaryl polyglycol ether
After 6 days, the efficacy in % is determined. 100% means that all the aphids have been killed; 0% means that no aphids have been killed.

Boophilus microplus = Boophilus microplus test (BOOPMI injection); assay type: in vivo; settings: 20 μg/animal, injection into the abdomen, after 7 days
Procedure: Boophilus microplus test (BOOPMI injection) • Solvent: dimethyl sulfoxide To produce a suitable preparation of active compound, 10 mg of active compound are mixed with 0.5 ml of solvent and the concentrate is diluted with solvent to the desired concentration. The active compound solution is injected into the abdomen (Boophilus microplus), and the animals are transferred into dishes and stored in a climate-controlled room. Efficacy is assessed after 7 days by laying of fertile eggs. Eggs which are not visibly fertile are stored in a climate-controlled cabinet until the larvae hatch after about 42 days.

Nilaparvata lugens [3] = settings: 500 g/ha, rice plants, after 4 days
Procedure: as §1
• Solvent: 52.5 parts by weight of acetone • 7 parts by weight of dimethylformamide • Emulsifier: alkylaryl polyglycol ether
To produce further test concentrations, the preparation is diluted with emulsifier-containing water.
After 4 days, the efficacy in % is determined. 100% means that all of the planthoppers have been killed; 0% means that none of the planthoppers have been killed.

Phaedon cochleariae = Phaedon cochleariae spray test (PHAECO); assay type: in vivo; settings: 500 g/ha, Chinese cabbage leaf discs, after 7 days
Procedure: Phaedon cochleariae—spray test (PHAECO)
• Solvent: 78.0 parts by weight of acetone • 1.5 parts by weight of dimethylformamide • Emulsifier: 0.5 part by weight of alkylaryl polyglycol ether
After 7 days, the efficacy in % is determined. 100% means that all the beetle larvae have been killed; 0% means that no beetle larvae have been killed.

Meloidogyne incognita = settings: 20 ppm, lettuce, after 14 days
Procedure: Meloidogvne incognita test (MELGIN)
• Solvent: 125.0 parts by weight of acetone
The lettuce seeds germinate and the plants develop. The galls develop on the roots.
After 14 days, the nematicidal efficacy in % is determined by the formation of galls.

[4] = tested on: Nippostrongylus brasiliensis; settings: 10 ppm, adult worms, 37° C., OD at 405 nm versus negative control
Procedure: Nippostrongylus brasiliensis test (NIPOBR)
Test method for in vitro experiments with Nippostrongylus brasiliensis
Adult Nippostrongylus brasiliensis is isolated from the small intestine of female Wistar rats and transferred into buffer solution containing 100 U/ml penicillin, 0.1 mg/ml streptomycin and 2.5 μg/ml amphotericin B.
The incubation of the worms (both sexes) is carried out in 1.0 ml of the medium also used for determining the acetylcholinesterase activity.
The compounds are dissolved in DMSO and added to the incubation medium such that final concentrations of 10 and 1 μg/ml, respectively, are present. The controls contain only DMSO.
Incubation is carried out at 37° C. and 5% CO2.
The enzyme determination is carried out using an aliquot of the medium. The AChE to be measured cleaves the substrate acetylthiocholine iodide (which is present as the iodide salt) into the products acetate and thiocholine.
In the subsequent reaction, thiocholine forms, with dithionitrobenzoic acid (DTNB, Ellman's reagent), a yellow dye (thionitrobenzoate).
The intensity of the color (=activity of AChE) is determined via the optical density (OD) photometrically at 405 nm and compared to the OD of the negative control.

Cooperia curticei = Cooperia curticei test (COOPCU); assay type: in vivo; settings: 100 ppm, after 5 days
Procedure: Cooperia curticei test (COOPCU)
• Solvent: dimethyl sulfoxide
To produce a suitable preparation of active compound, 10 mg of active compound are mixed with 0.5 ml of dimethyl sulfoxide and the concentrate is diluted with “Ringer's solution” to the desired concentration.
Vessels containing the active compound preparation of the desired concentration are populated with about 40 nematode larvae (Cooperia curticei).
After 5 days, the kill in % is determined. 100% means that all the larvae have been killed; 0% means that none of the larvae have been killed.

Haemonchus contortus = Haemonchus contortus test (HAEMCO); assay type: in vivo; settings: 100 ppm, after 5 days
Text: Haemonchus contortus-test ([…]) • Solvent: dimethyl sulfoxide […] Vessels containing the active compound preparation of the desired concentration are populated with about 40 larvae of the red stomach worm (Haemonchus contortus).

[5] = acidic range, pH 2.7, 0.1% aqueous formic acid/acetonitrile
[6] = neutral range, pH 7.8, aqueous ammonium hydrogencarbonate/acetonitrile

| Structure (SMILES) | efficacy (kill of leafhoppers) (Nephotettix cincticeps) [%] | chromatographic logP ([1]; acidic range, pH 2.7, 0.1% aqueous formic acid/acetonitrile, read-out: logP [a] = log P (HCOOH)) | chromatographic logP ([1]; neutral range, pH 7.8, aqueous ammonium hydrogencarbonate/acetonitrile, read-out: logP [b] = log P (neutral)) | efficacy (planthoppers killed) (Nilaparvata lugens [2]) [%] | efficacy (kill of aphids) (Aphis gossypii) [%] | efficacy (whiteflies killed) (Bemisia tabaci; 20 ppm) [%] | efficacy (aphids killed) (Myzus persicae; 750 g/ha) [%] | efficacy (laying of fertile eggs) (Boophilus microplus) [%] | efficacy (planthoppers killed) (Nilaparvata lugens [3]) [%] | logP [a] = log P (HCOOH) [1, 5] | logP [b] = log P (neutral) [1, 6] | efficacy (beetle larvae killed) (Phaedon cochleariae) [%] | nematicidal efficacy (formation of galls) (Meloidogyne incognita) [%] | efficacy (whiteflies killed) (Bemisia tabaci; 100 ppm) [%] | efficacy (aphids killed) (Myzus persicae; 500 g/ha) [%] | efficacy (category of AChE inhibition) [4] | efficacy (kill of larvae) (Cooperia curticei) [%] | efficacy (kill of larvae) (Haemonchus contortus) [%] |
| --- | --- | --- | --- | --- | --- | --- | --- | --- | --- | --- | --- | --- | --- | --- | --- | --- | --- | --- |
| Cc1cnccc1-c1cnc2cc(C(F)(F)F)ccc2n1 [Example I-2, 2-(3-Methylpyridin-4-yl)-6-(trifluoromethyl)quinoxaline] | 100 | 2.14 | 2.89 | 100 | 80 | 100 | 90 | 85 | – | – | – | – | – | – | – | – | – | – |
| FC(F)(F)c1ccc2nc(-c3ccncc3)cnc2c1 [Example I-7] | – | – | – | – | – | – | – | 80 | 90 | 2.17 | 2.75 | 100 | 90 | 100 | 90 | – | – | – |
| FC1(F)Oc2cc3ncc(-c4ccncc4)nc3cc2O1 [Example I-74] | – | – | – | – | – | – | – | – | – | 1.98 | – | – | 90 | – | – | – | – | – |
| FC(F)(F)c1ccc2ncc(-c3ccncc3)nc2c1 [Example I-9] | – | – | – | – | 85 | – | – | – | – | 2.13 | 2.75 | 100 | – | – | 90 | 100% (100% (>84-100% inhibition)) | 100 | 100 |
